Experimental data from patent publication US5126265A, “AB-021 antibiotics and process for producing them” (Presidenza del Consiglio dei Ministri-Ufficio del Ministro …, priority 1988, dated 1992).

Test system: Streptomyces sp. NCIB 40068
Assay: Resistance of the producing strain (Table B)
Type: cell-based
Details: producing strain Streptomyces sp. NCIB 40068

| Molecule | Resistance to (antimicrobial) |
| --- | --- |
| CN(C)C1C(=O)C(C(N)=O)=C(O)C2(O)C(=O)C3=C(O)c4c(O)cccc4C(C)(O)C3C(O)C12 (stereo not drawn) [Oxytetracycline] | 8 ppm |
| CO[C@H]1/C=C/O[C@@]2(C)Oc3c(C)c(O)c4c(O)c(c(/C=N/N5CCN(C)CC5)c(O)c4c3C2=O)NC(=O)/C(C)=C\C=C\[C@H](C)[C@H](O)[C@@H](C)[C@@H](O)[C@@H](C)[C@H](OC(C)=O)[C@@H]1C [Rifampicin] | 2 ppm |
| Lysozyme | 10 ppm |
